# Measured values as given in patent US6380195B1, “Method of treating heart failure with endothelin antagonists” (Banyu Pharmaceutical Co., Ltd., priority 1996, dated 2002).
# Entries after “also recorded” stand apart in the source; their conditions may differ. Marks after values point to notes of the source that are not given here.
# Columns and labels:
# ET receptor = assay: Endothelin-1 (ET-1) challenge before and after Compound 1 in conscious pigs with heart failure; format: in vivo, pig
# Description: Hemodynamic experiments were performed after 2 cycles of tachycardic pacing in the presence of myocardial ischemia injury, after the animal had achieved a stable state of heart failure. During the experiments, the pigs were conscious and quietly restrained in a sling. The test compound is dissolved in saturated NaHCO3 (10% by Vol) and 0.9% saline (90% by Vol) at a concentration of 2 mg/ml, was studied in four conscious pigs with heart failure. A dose of 0.5 mg/kg was injected intravenously over a period of 2 minutes, and hemodynamics were continuously recorded before and 90 minutes following injection of the test compound in all 4 pigs. In two of these pigs, recording continued until 3 hours following injection of the test compound. The vehicle was tested on separate days. The effects of 0.1 to 0.5 μg/kg cumulative bolus doses in 0.1 μg/kg steps of endothelin-1 (Peptide Institute, Inc., Osaka, Japan) were also examined on separate days before and 90 minutes after injection of the test compound in three pigs during development of heart failure to characterize the extent of endothelin block by the test compound. ET-1 was dissolved in 0.1 N NaHCO3 ([…]) and 0.9% saline (95% by Vol) at a concentration of 20 μg/ml.
# Hemodynamic experiments were performed after 2 cycles of tachycardic pacing in the presence of myocardial ischemia injury, after the animal had achieved a stable state of heart failure. During the experiments, the pigs were conscious and quietly restrained in a sling. Compound 1, dissolved in saturated NaHCO3 (10% by Vol) and 0.9% saline (90% by Vol) at a concentration of 2 mg/ml, was studied in four conscious pigs with heart failure. A dose of 0.5 mg/kg was injected intravenously over a period of 2 minutes, and hemodynamics were continuously recorded before and 90 minutes following injection of Compound 1 in all 4 pigs. In two of these pigs, recording continued until 3 hour following injection of Compound 1. The vehicle was tested on separate days. The effects of 0.1 to 0.5 μg/kg cumulative bolus doses in 0.1 μg/kg steps of endothelin-1 (Peptide Institute, Inc., Osaka, Japan) were also examined on separate days before and 90 minutes after injection of Compound 1 in three pigs during development of heart failure to characterize the extent of ET block by Compound 1. ET-1was dissolved in 0.1 N NaHCO3 ([…]) and 0.9% saline (95% by Vol) at a concentration of 20 μg/ml. For comparative purpose, the effects of intravenous injection of Compound 2 (enalaprilat), at doses of 1 mg/kg and 4 mg/kg, were studied on different days in three of the pigs that were used to study […] and in one additional pig. Compound 2 was dissolved in 0.9% saline.
# [1] = system: conscious pigs with heart failure; assay: Hemodynamic study in conscious pigs with heart failure (serial myocardial infarctions plus intermittent tachycardic pacing); format: in vivo, pig; details: for LV End-Diastolic Diameter, change from baseline / LV End-Systolic Diameter, change from baseline / LV Fractional Shortening, change from baseline / Vcf, change from baseline: n = 3; for Cardiac Index, change from baseline / Heart Rate, change from baseline / LV dP/dt, change from baseline / Left Atrial Pressure, change from baseline / Mean Arterial Pressure, change from baseline / Total Peripheral Resistance, change from baseline: n = 4
# Description: Five farm pigs of either of sex and weighing 34.5±2.5 kg were sedated with ketamine hydrochloride (25 mg/kg, i.m.) and xylazine (6 mg/kg, i.m.). After tracheal intubation, general anesthesia was maintained with isoflurane (1.5-2.0 vol % in oxygen). Using sterile surgical technique, a left thoracotomy was performed at the fifth intercostal space. Catheters made of Tygon tubing (Norton Performance Plastics Co., Akron, Ohio) were implanted in the descending aorta, left and right atria for measurement of pressures. A solid-state miniature pressure gauge (Konigsberg Instruments Inc., Pasadena, Calif.) was implanted in the left ventricular (LV) chamber to obtain LV pressure and the rate of change of LV pressure (LV dP/dt). A flow probe (Transonic System Inc., Ithaca, N.Y.) was placed around the main pulmonary artery for measurement of blood flow. One pair of piezoelectric ultrasonic dimension crystals were implanted on opposing anterior and posterior endocardial regions of the LV to measure the short-axis internal diameter. Proper alignment of the endocardial crystals was achieved during surgical implantation by positioning the crystals so as to obtain a signal with the greatest amplitude and shortest transit time. A pacing lead (model 5069, Medtronic Inc., Minneapolis, Minn.) was attached to the right ventricular free wall, and stainless steel pacing leads were attached to the left atrial appendage. The left circumflex coronary artery was isolated and two hydraulic occluders, made of Tygon tubing, were implanted proximally and distally to the first obtuse marginal branch. The wires and catheters were externalized between the scapulae, the incision was closed in layers, and air was evacuated from the chest cavity.
# Hemodynamic recordings were made using a data tape recorder (RD-130TE, TEAC, Montebello, Calif.) and a multiple-channel oscillograph (MT95K2, Astro-Med, West Warwick, R.I.). Aortic and left atrial pressures were measured using strain gauge manometers (Statham Instruments, Oxnard, Calif.), which were calibrated in vitro using a mercury manometer, connected to the fluid-filled catheters. The solid-state LV pressure gauge was cross-calibrated with aortic and left atrial pressure measurements. LV dP/dt was obtained by electronically differentiating the LV pressure signal. Blood flow was measured using a volume flow meter (T208, Transonic System Inc., Ithaca, N.Y.). Mean arterial pressure, left atrial pressures, and pulmonary blood flow (cardiac output) were measured using an amplifier filter. Stroke volume was calculated as the quotient of cardiac output and heart rate. Cardiac output was normalized by body weight to yield cardiac index. LV dimension was measured with an ultrasonic transit-time dimension gauge (Model 203, Triton Technology Inc., San Diego, Calif.). Total peripheral resistance was calculated as the quotient of mean arterial pressure and cardiac output. LV short-axis end-diastolic dimension (EDD) was measured at the beginning of the upstroke of the LV dP/dt signal. LV end-systolic dimension (ESD) was measured at the time of maximum negative dP/dt. The percent shortening of LV internal diameter was calculated as (EDD-ESD)/EDD*100. LV mean velocity of circumferential fiber shortening (Vcf) was calculated from the dimension measurements using the following formula:(EDD-ESD)/EDD/Ejection time (sec^−1). Ejection time was measured as the interval between maximum and minimum LV dP/dt. A cardiotachometer triggered by the LV pressure pulse provided instantaneous and continuous records of heart rate.
# Experiments were initiated 10-14 days after surgery, when the pigs were fully recovered from surgery. During the post-operative period, the pigs were introduced to a sling for training. Heart failure was produced by progressive myocardial ischemia induced by two coronary artery occlusions followed by intermittent ventricular pacing.
# [2] = ET-1 cumulative i.v. bolus 0.1 to 0.5 μg/kg, without Compound 1
# [3] = 0.5 mg/kg i.v., 60 minutes after administration
# [4] = Compound 1 0.5 mg/kg i.v., 15 min
# [5] = Compound 1 0.5 mg/kg i.v., 60 min
compound,measurement,setting,value
"CC[C@H](C)[C@H](NC(=O)[C@H](CC(=O)O)NC(=O)[C@H](CC(C)C)NC(=O)[C@H](Cc1c[nH]cn1)NC(=O)[C@@H]1CSSC[C@H](N)C(=O)N[C@@H](CO)C(=O)N[C@H]2CSSC[C@H](NC(=O)[C@H](CCC(=O)O)NC(=O)[C@H](CCCCN)NC(=O)[C@H](CC(=O)O)NC(=O)[C@H](CCSC)NC(=O)[C@H](CC(C)C)NC(=O)[C@H](CO)NC(=O)[C@H](CO)NC2=O)C(=O)N[C@@H](C(C)C)C(=O)N[C@@H](Cc2ccc(O)cc2)C(=O)N[C@@H](Cc2ccccc2)C(=O)N1)C(=O)N[C@H](C(=O)N[C@@H](Cc1c[nH]c2ccccc12)C(=O)O)[C@@H](C)CC [ET-1, endothelin-1]",effect of ET-1 on heart rate,ET receptor; [2],"decreased, but not dose-dependently"
same,effect of ET-1 on mean arterial pressure,ET receptor; [2],significant dose-dependent increases
same,effect of ET-1 on mean left atrial pressure,ET receptor; [2],significant dose-dependent increases
same,effect of ET-1 on total peripheral resistance,ET receptor; [2],significant dose-dependent increases
"C[C@H](N[C@@H](CCc1ccccc1)C(=O)O)C(=O)N1CCC[C@H]1C(=O)O [Compound 2, enalaprilat, reference compound]",effect on total peripheral resistance (in words),"[1]; 1 mg/kg or 4 mg/kg i.v., throughout 90-minute observation period, not dose-dependent",significantly reduce the total peripheral resistance
"CCCCc1ccc2c(n1)[C@@H](c1ccc(OC)cc1CC(C)C(=O)O)[C@H](C(=O)O)[C@H]2c1ccc2c(c1)OCO2 (relative stereo) [Compound 1, (+)-(5S*, 6R*, 7R*)-2-butyl-6-carboxy-7-[2-(2-carboxypropyl)-4-methoxyphenyl]-5-(3,4-methylenedioxyphenyl)cyclopenteno[1,2-b]pyridine]","Vcf, increase",[1]; 0.5 mg/kg i.v.,12±2%
same,effect on LV dP/dt (in words),[1]; 0.5 mg/kg i.v.,not affected
same,effect on LV end-diastolic diameter (in words),[1]; 0.5 mg/kg i.v.,not affected
same,effect on LV fraction shortening (in words),[1]; 0.5 mg/kg i.v.,not affected
same,effect on LV systolic diameter (in words),[1]; 0.5 mg/kg i.v.,not affected
same,effect on elevated vascular resistance of heart failure (in words),[1]; 0.5 mg/kg i.v.,complete restoration of the elevated vascular resistance of heart failure back to pre-heart failure control values; also recorded: reduced the elevated vascular resistance
same,effect on myocardial contractility (in words),[1]; 0.5 mg/kg i.v.,did not affect myocardial contractility
same,"heart rate, increase (in words)",[1]; 0.5 mg/kg i.v.,not statistically significant
same,"left atrial pressure, decrease (in words)",[1]; 0.5 mg/kg i.v.,not statistically significant
same,"cardiac index, increase",[1]; [3],17±4%
same,"mean arterial pressure, decrease",[1]; [3],10±2%
same,"total peripheral resistance, decrease",[1]; [3],22±3%
same,reduction in total peripheral resistance compared with Compound 2 (1 mg/kg or 4 mg/kg i.v.),[1]; Compound 1 0.5 mg/kg i.v.,greater than that induced by either dose of Compound 2
same,"LV End-Diastolic Diameter, change from baseline",[1]; [4],+0.1 ± 0.2 mm
same,"LV End-Systolic Diameter, change from baseline",[1]; [4],−0.3 ± 0.3 mm
same,"LV Fractional Shortening, change from baseline",[1]; [4],+0.6 ± 0.2%
same,"Vcf, change from baseline",[1]; [4],0.05 ± 0.01* sec^−1
same,"Cardiac Index, change from baseline",[1]; [4],+14 ± 2 ml/min/kg
same,"Heart Rate, change from baseline",[1]; [4],+5 ± 5 beat/min
same,"LV dP/dt, change from baseline",[1]; [4],+25 ± 40 mmHg/sec
same,"Left Atrial Pressure, change from baseline",[1]; [4],−4 ± 2 mmHg
same,"Mean Arterial Pressure, change from baseline",[1]; [4],−10 ± 1 mmHg
same,"Total Peripheral Resistance, change from baseline",[1]; [4],−0.25 ± 0.03 mmHg/ml/min/kg
same,"LV End-Diastolic Diameter, change from baseline",[1]; [5],+0.2 ± 0.3 mm
same,"LV End-Systolic Diameter, change from baseline",[1]; [5],−0.2 ± 0.3 mm
same,"LV Fractional Shortening, change from baseline",[1]; [5],+0.7 ± 0.2%
same,"Vcf, change from baseline",[1]; [5],+0.07 ± 0.02* sec^−1
same,"Cardiac Index, change from baseline",[1]; [5],+13 ± 2 ml/min/kg
same,"Heart Rate, change from baseline",[1]; [5],+7 ± 5 beat/min
same,"LV dP/dt, change from baseline",[1]; [5],56 ± 65 mmHg/sec
same,"Left Atrial Pressure, change from baseline",[1]; [5],−2 ± 2 mmHg
same,"Mean Arterial Pressure, change from baseline",[1]; [5],−8 ± 1 mmHg
same,"Total Peripheral Resistance, change from baseline",[1]; [5],−0.24 ± 0.05 mmHg/ml/min/kg
same,hemodynamic responses to ET-1 after administration of the antagonist,"ET receptor; Compound 1 0.5 mg/kg i.v., ET-1 cumulative i.v. bolus, total dose 0.5 μg/kg",markedly attenuated
